Measured values as given in the kinase profiling compilation of Christmann-Franck et al. (2016).

Tests used:
Experiment in all cases: KINOMEscan competition binding
Settings in all cases: compound 10.0 µM
[1] = target: MAP2K7 (human) (UniProt O14733)
[2] = target: PLK3 (human) (UniProt Q9H4B4)
[3] = target: EPHA7 (human) (UniProt Q15375)
[4] = target: NEK9 (human) (UniProt Q8TD19)
[5] = target: YSK4 (human) (UniProt Q56UN5)
[6] = target: DAPK3 (human) (UniProt O43293)
[7] = target: RIOK2 (human) (UniProt Q9BVS4)
Chain of RIOK2 (human) (Q9BVS4 whole entry, looked up): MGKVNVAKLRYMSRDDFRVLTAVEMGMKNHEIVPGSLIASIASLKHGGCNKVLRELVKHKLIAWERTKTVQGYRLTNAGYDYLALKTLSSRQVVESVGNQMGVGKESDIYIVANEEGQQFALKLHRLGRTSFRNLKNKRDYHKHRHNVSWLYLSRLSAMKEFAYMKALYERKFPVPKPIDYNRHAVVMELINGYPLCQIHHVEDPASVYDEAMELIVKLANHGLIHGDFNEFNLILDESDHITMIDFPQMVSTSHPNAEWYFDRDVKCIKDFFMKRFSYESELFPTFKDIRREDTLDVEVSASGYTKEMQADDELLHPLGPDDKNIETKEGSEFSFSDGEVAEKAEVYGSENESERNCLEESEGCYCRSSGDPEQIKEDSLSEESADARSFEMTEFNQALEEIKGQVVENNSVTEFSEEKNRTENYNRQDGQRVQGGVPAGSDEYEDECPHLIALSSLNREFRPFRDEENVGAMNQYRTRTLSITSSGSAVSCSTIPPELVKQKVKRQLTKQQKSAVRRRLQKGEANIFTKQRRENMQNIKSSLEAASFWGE

[8] = target: TIE1 (human) (UniProt P35590)
[9] = target: DDR2 (human) (UniProt Q16832)
Chain of DDR2 (human) (Q16832 whole entry, looked up): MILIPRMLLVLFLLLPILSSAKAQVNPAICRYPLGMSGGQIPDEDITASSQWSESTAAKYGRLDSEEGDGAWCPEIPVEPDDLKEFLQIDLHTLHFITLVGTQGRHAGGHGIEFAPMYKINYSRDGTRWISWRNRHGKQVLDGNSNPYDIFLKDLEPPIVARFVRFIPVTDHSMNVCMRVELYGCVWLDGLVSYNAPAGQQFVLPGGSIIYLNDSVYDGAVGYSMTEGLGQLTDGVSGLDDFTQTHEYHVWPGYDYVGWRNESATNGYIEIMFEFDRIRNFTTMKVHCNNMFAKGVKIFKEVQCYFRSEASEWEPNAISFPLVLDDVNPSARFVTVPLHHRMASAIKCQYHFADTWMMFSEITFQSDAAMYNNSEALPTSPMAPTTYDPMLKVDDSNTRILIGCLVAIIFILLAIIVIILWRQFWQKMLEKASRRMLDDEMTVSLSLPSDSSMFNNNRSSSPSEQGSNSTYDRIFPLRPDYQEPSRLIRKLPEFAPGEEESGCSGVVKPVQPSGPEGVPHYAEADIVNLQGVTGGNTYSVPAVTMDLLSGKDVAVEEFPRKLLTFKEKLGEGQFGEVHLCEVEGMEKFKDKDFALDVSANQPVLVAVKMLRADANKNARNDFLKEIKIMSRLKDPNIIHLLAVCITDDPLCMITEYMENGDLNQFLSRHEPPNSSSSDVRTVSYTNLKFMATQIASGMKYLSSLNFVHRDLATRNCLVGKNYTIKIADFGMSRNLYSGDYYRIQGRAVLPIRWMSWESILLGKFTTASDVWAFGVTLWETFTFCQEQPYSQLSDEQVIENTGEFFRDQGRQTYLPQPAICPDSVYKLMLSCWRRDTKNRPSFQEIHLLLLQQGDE

[10] = target: RIPK2 (human) (UniProt O43353)
[11] = target: MARK1 (human) (UniProt Q9P0L2)
[12] = target: MAPK7 (human) (UniProt Q13164)
[13] = target: MAPK12 (human) (UniProt P53778)
[14] = target: ACVR1B (human) (UniProt P36896)
[15] = target: GRK4 (human) (UniProt P32298)
[16] = system: PIK3CA (human), P42336 [E542K]
[17] = target: CAMKK2 (human) (UniProt Q96RR4)
[18] = target: FGFR4 (human) (UniProt P22455)
[19] = target: IRAK3 (human) (UniProt Q9Y616)
[20] = target: MAP3K10 (human) (UniProt Q02779)
[21] = system: BMX (human), P51813 [V600E]
[22] = target: STK3 (human) (UniProt Q13188)
[23] = target: MLTK (human) (UniProt Q9NYL2)
[24] = target: PAK6 (human) (UniProt Q9NQU5)
Chain of PAK6 (human) (Q9NQU5 whole entry, looked up): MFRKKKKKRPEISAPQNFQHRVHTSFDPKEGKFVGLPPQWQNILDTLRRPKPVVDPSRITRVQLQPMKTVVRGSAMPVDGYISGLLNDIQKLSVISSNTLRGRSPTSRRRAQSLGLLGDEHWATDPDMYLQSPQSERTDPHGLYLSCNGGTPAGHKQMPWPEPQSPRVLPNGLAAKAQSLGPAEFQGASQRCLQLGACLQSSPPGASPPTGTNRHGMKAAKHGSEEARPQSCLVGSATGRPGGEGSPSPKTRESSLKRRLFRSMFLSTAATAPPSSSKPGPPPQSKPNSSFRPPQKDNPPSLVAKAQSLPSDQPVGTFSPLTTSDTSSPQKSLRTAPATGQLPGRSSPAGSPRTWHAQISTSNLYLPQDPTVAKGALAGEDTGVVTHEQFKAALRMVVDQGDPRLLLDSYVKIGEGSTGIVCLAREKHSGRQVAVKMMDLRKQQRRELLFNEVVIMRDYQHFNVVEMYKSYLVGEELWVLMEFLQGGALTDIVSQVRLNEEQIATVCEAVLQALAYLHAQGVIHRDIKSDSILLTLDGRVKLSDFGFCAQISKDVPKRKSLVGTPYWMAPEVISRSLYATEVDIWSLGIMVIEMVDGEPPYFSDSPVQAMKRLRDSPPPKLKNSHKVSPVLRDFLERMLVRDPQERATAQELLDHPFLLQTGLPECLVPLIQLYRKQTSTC

[25] = target: CAMKK1 (human) (UniProt Q8N5S9)
Chain of CAMKK1 (human) (Q8N5S9 whole entry, looked up): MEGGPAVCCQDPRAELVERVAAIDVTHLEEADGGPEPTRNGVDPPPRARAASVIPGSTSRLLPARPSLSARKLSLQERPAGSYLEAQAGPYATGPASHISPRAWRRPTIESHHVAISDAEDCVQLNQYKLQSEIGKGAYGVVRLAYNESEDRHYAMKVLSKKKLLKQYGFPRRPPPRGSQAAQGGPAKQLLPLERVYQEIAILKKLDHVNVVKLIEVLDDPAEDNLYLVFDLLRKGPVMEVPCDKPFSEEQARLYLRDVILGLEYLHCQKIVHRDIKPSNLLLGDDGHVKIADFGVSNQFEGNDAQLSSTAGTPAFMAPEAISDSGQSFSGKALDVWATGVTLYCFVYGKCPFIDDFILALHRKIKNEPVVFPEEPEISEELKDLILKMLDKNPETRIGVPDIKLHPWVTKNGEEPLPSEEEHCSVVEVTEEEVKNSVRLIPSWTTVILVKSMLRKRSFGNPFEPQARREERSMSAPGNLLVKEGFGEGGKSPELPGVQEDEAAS

[26] = target: PIK3CD (human) (UniProt O00329)
[27] = target: MAP2K4 (human) (UniProt P45985)
[28] = target: BRSK1 (human) (UniProt Q8TDC3)
[29] = system: CPK1 (P.falciparum)
[30] = target: PIK3C2B (human) (UniProt O00750)
[31] = target: RPS6KA4 KD1 (human) (UniProt O75676)
[32] = target: SIK1 (human) (UniProt P57059)
Chain of SIK1 (human) (P57059 whole entry, looked up): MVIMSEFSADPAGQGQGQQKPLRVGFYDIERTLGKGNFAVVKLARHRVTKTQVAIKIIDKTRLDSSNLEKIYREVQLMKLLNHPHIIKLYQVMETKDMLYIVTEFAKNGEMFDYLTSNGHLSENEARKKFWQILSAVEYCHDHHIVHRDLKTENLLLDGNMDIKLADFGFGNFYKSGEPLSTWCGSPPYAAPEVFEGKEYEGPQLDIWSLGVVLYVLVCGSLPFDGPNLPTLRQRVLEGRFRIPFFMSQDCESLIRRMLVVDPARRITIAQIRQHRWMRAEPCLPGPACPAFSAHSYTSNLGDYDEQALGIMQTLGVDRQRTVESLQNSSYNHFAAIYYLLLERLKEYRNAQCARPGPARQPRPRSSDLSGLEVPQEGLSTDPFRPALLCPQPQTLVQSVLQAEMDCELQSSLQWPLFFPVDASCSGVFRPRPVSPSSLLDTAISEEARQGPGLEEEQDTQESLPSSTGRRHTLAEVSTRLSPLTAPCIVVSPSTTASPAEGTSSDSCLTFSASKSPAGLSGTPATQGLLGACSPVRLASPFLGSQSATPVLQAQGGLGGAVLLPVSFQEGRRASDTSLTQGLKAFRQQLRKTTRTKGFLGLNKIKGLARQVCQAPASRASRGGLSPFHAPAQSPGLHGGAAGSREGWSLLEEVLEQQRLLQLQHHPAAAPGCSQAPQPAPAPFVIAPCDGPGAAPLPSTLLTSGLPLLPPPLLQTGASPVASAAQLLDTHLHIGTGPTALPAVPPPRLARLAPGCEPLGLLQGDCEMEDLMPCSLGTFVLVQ

[33] = target: OXSR1 (human) (UniProt O95747)
Chain of OXSR1 (human) (O95747 whole entry, looked up): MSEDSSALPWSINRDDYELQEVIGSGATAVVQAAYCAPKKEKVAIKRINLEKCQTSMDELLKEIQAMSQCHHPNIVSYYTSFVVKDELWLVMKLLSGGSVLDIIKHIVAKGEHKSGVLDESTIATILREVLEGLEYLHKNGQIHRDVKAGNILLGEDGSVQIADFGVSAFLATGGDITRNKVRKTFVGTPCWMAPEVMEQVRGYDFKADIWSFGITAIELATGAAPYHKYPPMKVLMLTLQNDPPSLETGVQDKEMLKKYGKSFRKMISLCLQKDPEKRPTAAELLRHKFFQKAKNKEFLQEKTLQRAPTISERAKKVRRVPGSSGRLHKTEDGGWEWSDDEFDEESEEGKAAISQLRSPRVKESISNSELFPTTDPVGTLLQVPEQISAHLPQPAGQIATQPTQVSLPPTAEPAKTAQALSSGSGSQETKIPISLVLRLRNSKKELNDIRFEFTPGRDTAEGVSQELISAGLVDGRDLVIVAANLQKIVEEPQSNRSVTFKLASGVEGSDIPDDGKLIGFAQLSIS

[34] = target: PLK2 (human) (UniProt Q9NYY3)
[35] = system: FGFR3 (human), P22607 [G697C]
[36] = target: TNK2 (human) (UniProt Q07912)
[37] = target: PHKG2 (human) (UniProt P15735)
Chain of PHKG2 (human) (P15735 whole entry, looked up): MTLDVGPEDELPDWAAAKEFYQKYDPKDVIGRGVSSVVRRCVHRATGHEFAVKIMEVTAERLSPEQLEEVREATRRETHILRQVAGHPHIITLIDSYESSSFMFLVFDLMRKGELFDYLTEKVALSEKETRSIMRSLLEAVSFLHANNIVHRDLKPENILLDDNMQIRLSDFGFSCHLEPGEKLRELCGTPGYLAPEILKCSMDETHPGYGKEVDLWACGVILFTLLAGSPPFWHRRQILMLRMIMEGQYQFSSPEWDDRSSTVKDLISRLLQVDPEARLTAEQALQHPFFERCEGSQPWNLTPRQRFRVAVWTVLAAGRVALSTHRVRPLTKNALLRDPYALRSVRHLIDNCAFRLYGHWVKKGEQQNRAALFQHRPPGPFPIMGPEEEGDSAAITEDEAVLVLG

[38] = target: PIP4K2C (human) (UniProt Q8TBX8)
[39] = target: FLT1 (human) (UniProt P17948)
[40] = target: BMPR2 (human) (UniProt Q13873)

Chain of MAP2K7 (human) (O14733 whole entry, looked up): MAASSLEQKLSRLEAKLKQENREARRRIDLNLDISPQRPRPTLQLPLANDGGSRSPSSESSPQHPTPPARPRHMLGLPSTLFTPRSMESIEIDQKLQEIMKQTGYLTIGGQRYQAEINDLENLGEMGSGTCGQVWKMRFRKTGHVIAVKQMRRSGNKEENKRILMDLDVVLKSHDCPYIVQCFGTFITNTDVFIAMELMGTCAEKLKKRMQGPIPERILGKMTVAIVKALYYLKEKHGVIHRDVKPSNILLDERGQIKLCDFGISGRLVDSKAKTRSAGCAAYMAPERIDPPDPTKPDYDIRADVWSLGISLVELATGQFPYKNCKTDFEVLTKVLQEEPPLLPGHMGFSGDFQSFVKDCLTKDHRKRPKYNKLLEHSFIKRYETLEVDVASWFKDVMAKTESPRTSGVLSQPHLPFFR

Row | Compound | kinase still bound, per cent of control [1] [%] | kinase still bound, per cent of control [2] [%] | kinase still bound, per cent of control [4] [%] | kinase still bound, per cent of control [5] [%] | kinase still bound, per cent of control [6] [%] | kinase still bound, per cent of control [7] [%] | kinase still bound, per cent of control [9] [%] | kinase still bound, per cent of control [11] [%] | kinase still bound, per cent of control [12] [%] | kinase still bound, per cent of control [13] [%] | kinase still bound, per cent of control [14] [%] | kinase still bound, per cent of control [15] [%] | kinase still bound, per cent of control [17] [%] | kinase still bound, per cent of control [19] [%] | kinase still bound, per cent of control [20] [%] | kinase still bound, per cent of control [22] [%] | kinase still bound, per cent of control [24] [%] | kinase still bound, per cent of control [25] [%] | kinase still bound, per cent of control [26] [%] | kinase still bound, per cent of control [28] [%] | further results
1 | O=c1[nH]c2ccccc2n1C1CCN(Cc2ccc(-c3nc4cc5[nH]cnc5cc4nc3-c3ccccc3)cc2)CC1 | 80 | 94 | 88 | 75 | 85 | 79 | 76 | 97 | 100 | 98 | 100 | 100 | 97 | 100 | 84 | 100 | 85 | 100 | 51 | 100 | kinase still bound, per cent of control [3]: 100%; kinase still bound, per cent of control [8]: 100%; kinase still bound, per cent of control [10]: 64%; kinase still bound, per cent of control [16]: 58%; kinase still bound, per cent of control [18]: 100%; kinase still bound, per cent of control [21]: 84%; kinase still bound, per cent of control [23]: 92%; kinase still bound, per cent of control [27]: 94%; kinase still bound, per cent of control [29]: 40%; kinase still bound, per cent of control [30]: 54%; kinase still bound, per cent of control [31]: 100%; kinase still bound, per cent of control [32]: 100%; kinase still bound, per cent of control [33]: 81%; kinase still bound, per cent of control [34]: 88%; kinase still bound, per cent of control [35]: 89%; kinase still bound, per cent of control [36]: 100%; kinase still bound, per cent of control [37]: 100%; kinase still bound, per cent of control [38]: 83%; kinase still bound, per cent of control [39]: 89%; kinase still bound, per cent of control [40]: 100%
2 | CC(=O)c1c(C)c2cnc(Nc3ccc(N4CCNCC4)cn3)nc2n(C2CCCC2)c1=O | 87 | 19 | 76 | 4.3 | 0.45 | 56 | 56 | 35 | 0.65 | 59 | 96 | 26 | 20 | 36 | 93 | 59 | 66 | 20 | 28 | 68 | kinase still bound, per cent of control [29]: 46%; kinase still bound, per cent of control [30]: 98%; kinase still bound, per cent of control [31]: 75%; kinase still bound, per cent of control [32]: 90%; kinase still bound, per cent of control [33]: 81%; kinase still bound, per cent of control [34]: 14%; kinase still bound, per cent of control [36]: 92%; kinase still bound, per cent of control [37]: 5%; kinase still bound, per cent of control [38]: 1%; kinase still bound, per cent of control [39]: 100%
3 | CCN(CCO)CCCOc1ccc2c(Nc3cc(CC(=O)Nc4cccc(F)c4)[nH]n3)ncnc2c1 | 91 | 89 | 100 | 39 | 82 | 58 | 27 | 98 | 87 | 89 | 88 | 100 | 100 | 37 | 92 | 100 | 98 | 71 | 88 | 64 | kinase still bound, per cent of control [3]: 74%; kinase still bound, per cent of control [10]: 17%; kinase still bound, per cent of control [16]: 100%; kinase still bound, per cent of control [18]: 100%; kinase still bound, per cent of control [21]: 100%; kinase still bound, per cent of control [23]: 63%; kinase still bound, per cent of control [27]: 100%; kinase still bound, per cent of control [29]: 63%; kinase still bound, per cent of control [30]: 58%; kinase still bound, per cent of control [31]: 73%; kinase still bound, per cent of control [32]: 88%; kinase still bound, per cent of control [33]: 100%; kinase still bound, per cent of control [34]: 93%; kinase still bound, per cent of control [35]: 100%; kinase still bound, per cent of control [36]: 100%; kinase still bound, per cent of control [37]: 81%; kinase still bound, per cent of control [38]: 51%; kinase still bound, per cent of control [39]: 1%
